We go through one molecule from publication PMC9122897, “SHR1032, a novel STING agonist, stimulates anti-tumor immunity and directly induces AML apoptosis” (Scientific Reports, 2022).

The subject of assay [1] is THP1-STING-R232 cells. As to the kind of experiment: IFNβ ELISA. The class given is cell-based, human. Conditions: THP1-STING-R232, 5 h, vs ADU-S100. The procedure:
Figure 2 SHR1032 specifically and potently activates STING signaling pathway. IRF luciferase reporter assays in (a) THP1-STING-R232, THP1-STING-H232, THP1-STING-HAQ, and THP1-STING-KO cells. Cells were stimulated for 24 h with the indicated STING compounds and assessed for luciferase activity. IFNβ production and activation of cGAS-STING signaling pathway in (b) human THP1-STING-R232, human PBMCs from a donor homozygous for the R232 variant, cynomolgus PBMC, and mouse RAW164.7 macrophage cells were treated with STING agonists for 5 h. IFNβ in media was quantified by human or mouse ELISA kits respectively. (c) THP1-STING-R232 cells and mouse RAW164.7 macrophage cells were stimulated with 40 µM of ADU-S100 or 10 µM of SHR1032 for the indicated time points. The amount of pTBK1, total TBK1, STING and α-tubulin was measured by western blotting.
Human and Cynomolgous PBMC’s were thawed and spun down in Lymphocyte media (ZENBIO) and resuspended in media to 1.5 x 10^6 cells/ml density. […] Human and monkey IFN-β protein concentration was measured using human IFN-β Quantikine ELISA Kits (R&D Systems) per manufacture’s protocol. Mouse IFN-β was measured using mouse IFN-β Quantikine ELISA Kits (R&D Systems) per manufacture’s protocol. Mouse TNFα, IFN-β and IL-6 in the tumor lysates and plasma was measured by Quantikine ELISA Kits (R&D Systems) per manufacture’s protocol.

The test system of assay [2] is THP1-STING-R232 cells. The assay is described as follows: CellTiter-Glo cell growth. The class given is cell-based, human. Conditions: Homo sapiens. The procedure: (§1) (a–d) AML cells were treated with STING agonists and standard of care cytarabine, and cell viability was measured by CellTiter Glo in (a) THP1-STING-R232, (b) THP1-STING-KO, (c) MV-4-11 and (d) MOLM-16. (e) MV-4-11, MOLM-16 and THP1-STING-KO cells were stimulated with 1 µM of SHR1032 for the indicated time points. The amount of pTBK1, total TBK1, pSTING, total STING and α-tubulin was measured by Western blot. pSTING phosphorylated STING. THP1 reporter cells were treated for 24 h with a total of 100 k cells and 150 ul media in each well a 96-well plate. Following the incubation, 20 µl of supernatant was transferred to an opaque 96 well ½ area plate and incubated for 30 s with 50 µl of QUANTI-Luc substrate (InvivoGen) per manufacturer’s instructions. Luminescence signal was measured using Tecan infinite M1000. EC50 values were calculated using non-linear regression analysis of GraphPad Prism. Cell growth was monitored by CellTiter-Glo Luminescent Cell Viability Assay (Promega) per manufacture’s protocol. GI50 values were calculated using non-linear regression analysis of GraphPad Prism. Cell lysates for western blotting were made in RIPA buffer (Sigma) with Halt Protease and Phosphatase Inhibitors (Thermo Scientific). Antibodies against pSTING, TBK1, pTBK1 and tubulin were purchased from Cell Signaling Technologies, and anti-STING was purchased from Protein Tech.
For orientation: Cellular ATP, detected with luciferase, serves as a proxy for viable cell number.

The subject of the next assay is THP1-STING-KO cells. The assay is described as follows: CellTiter-Glo cell growth. It counts as cell-based, human. The procedure: as §1
The test system of the next assay is THP1 reporter cells. As to the kind of experiment: THP1 IRF luciferase reporter assay. It counts as cell-based. Conditions: Homo sapiens, THP-1; IRF Lucia luciferase reporter, 24 h; read-out: THP1 reporter cell EC50. The text has this: We sought to develop small molecule compounds with increased STING agonist activity against human STING. GSK reported a series of non-CDN small molecules, represented by compound 1[13], with good human STING agonistic activity. Based on our molecular modeling analysis, along with the reported CDN-STING crystal structures, we designed a novel series of fused tricyclic heterocycle compounds and analyzed their binding to human STING with thermal shift assays and the potency in activation of STING signaling with a reporter cellular assay (Supplementary Table S1). Thermal shift assays measure the difference between apo STING and ligand bound STING in the inflection point at which 50% of protein is thermally unfolded (ΔTm). […] The ability of compounds to activate the IRF reporter gene in the THP1 cells was also evaluated.
THP1 reporter cells were treated for 24 h with a total of 100 k cells and 150 ul media in each well a 96-well plate. […] Luminescence signal was measured using Tecan infinite M1000. EC50 values were calculated using non-linear regression analysis of GraphPad Prism. Cell growth was monitored by CellTiter-Glo Luminescent Cell Viability Assay (Promega) per manufacture’s protocol. GI50 values were calculated using non-linear regression analysis of GraphPad Prism. […]
A general note: Reporter assays use an easily measured gene product as a stand-in for the process of interest.

The term GI50 denotes the concentration giving 50% growth inhibition. A higher GI50 goes with lower sensitivity of the cells. As usually defined, the EC50 is the concentration that produces a half-maximal response. With `CCn1nc(C)cc1C(=O)Nc1nc2cc(C(N)=O)cc(OC)c2n1CCC[C@H]1COc2cc(C(N)=O)cc3nc(NC(=O)c4cc(C)nn4CC)n1c23` [SHR1032], the IFNβ induction entry with THP1-STING-R232 cells [1] is “much higher level of IFNβ”. The 50% growth inhibitory concentration (GI50) in the assay with THP1-STING-R232 cells [2] came to 23 nM. Moreover, the cell growth inhibition entry with THP1-STING-KO cells was “not detectable”. Also, the concentration for a half-maximal effect (EC50) in the assay on THP1 reporter cells came to 30 nM.
